According to ChEMBL document CHEMBL1201861, “Genomics of Drug Sensitity in Cancer screening data, Wellcome Trust Sanger Institute”:

Tests used:
REH = assay: cells; assay type: functional, cell-based, Homo sapiens; details: Homo sapiens, REH
Description: SANGER: Inhibition of human REH cell growth in a cell viability assay.

SU-DHL-1 = assay: SANGER: Inhibition of human SU-DHL-1 cell growth in a cell viability assay.; assay type: functional, cell-based; details: Homo sapiens, SU-DHL-1
L-540 = assay: cells; assay type: functional, cell-based, Homo sapiens; details: Homo sapiens, L-540
Description: SANGER: Inhibition of human L-540 cell growth in a cell viability assay.

EHEB = assay: cells; assay type: functional, cell-based, Homo sapiens; details: Homo sapiens, EHEB
Description: SANGER: Inhibition of human EHEB cell growth in a cell viability assay.

DMS-153 = assay: cells; assay type: functional, cell-based, Homo sapiens; details: Homo sapiens, DMS-153
Description: SANGER: Inhibition of human DMS-153 cell growth in a cell viability assay.

RPMI-6666 = assay: cells; assay type: functional, cell-based, Homo sapiens; details: Homo sapiens, RPMI-6666
Description: SANGER: Inhibition of human RPMI-6666 cell growth in a cell viability assay.

EB2 = assay: cells; assay type: functional, cell-based, Homo sapiens; details: Homo sapiens, EB2
Description: SANGER: Inhibition of human EB2 cell growth in a cell viability assay.

NALM-6 = assay: cells; assay type: functional, cell-based, Homo sapiens; details: Homo sapiens, NALM-6
Description: SANGER: Inhibition of human NALM-6 cell growth in a cell viability assay.

LC-1F = assay: cells; assay type: functional, cell-based, Homo sapiens; details: Homo sapiens, LC-1F
Description: SANGER: Inhibition of human LC-1F cell growth in a cell viability assay.

LB647-SCLC = assay: cells; assay type: functional, cell-based, Homo sapiens; details: Homo sapiens, LB647-SCLC
Description: SANGER: Inhibition of human LB647-SCLC cell growth in a cell viability assay.

Daudi = assay: cells; assay type: functional, cell-based, Homo sapiens; details: Homo sapiens, Daudi
Description: SANGER: Inhibition of human Daudi cell growth in a cell viability assay.

OAW-28 = assay: cells; assay type: functional, cell-based, Homo sapiens; details: Homo sapiens, OAW-28
Description: SANGER: Inhibition of human OAW-28 cell growth in a cell viability assay.

SW1417 = assay: cells; assay type: functional, cell-based, Homo sapiens; details: Homo sapiens, SW1417
Description: SANGER: Inhibition of human SW1417 cell growth in a cell viability assay.

SW13 = assay: cells; assay type: functional, cell-based, Homo sapiens; details: Homo sapiens, SW13
Description: SANGER: Inhibition of human SW13 cell growth in a cell viability assay.

RERF-LC-MS = assay: cells; assay type: functional, cell-based, Homo sapiens; details: Homo sapiens, RERF-LC-MS
Description: SANGER: Inhibition of human RERF-LC-MS cell growth in a cell viability assay.

HOP-92 = assay: cells; assay type: functional, cell-based, Homo sapiens; details: Homo sapiens, HOP-92
Description: SANGER: Inhibition of human HOP-92 cell growth in a cell viability assay.

NCI-H2030 = assay: cells; assay type: functional, cell-based, Homo sapiens; details: Homo sapiens, NCI-H2030
Description: SANGER: Inhibition of human NCI-H2030 cell growth in a cell viability assay.

NCI-H2170 = assay: cells; assay type: functional, cell-based, Homo sapiens; details: Homo sapiens, NCI-H2170
Description: SANGER: Inhibition of human NCI-H2170 cell growth in a cell viability assay.

MEL-JUSO = assay: cells; assay type: functional, cell-based, Homo sapiens; details: Homo sapiens, MEL-JUSO
Description: SANGER: Inhibition of human MEL-JUSO cell growth in a cell viability assay.

SCC-4 = assay: cells; assay type: functional, cell-based, Homo sapiens; details: Homo sapiens, SCC-4
Description: SANGER: Inhibition of human SCC-4 cell growth in a cell viability assay.

HCC1954 = assay: cells; assay type: functional, cell-based, Homo sapiens; details: Homo sapiens, HCC1954
Description: SANGER: Inhibition of human HCC1954 cell growth in a cell viability assay.

MDA-MB-415 = assay: cells; assay type: functional, cell-based, Homo sapiens; details: Homo sapiens, MDA-MB-415
MKN-7 = assay: cells; assay type: functional, cell-based, Homo sapiens; details: Homo sapiens, MKN-7
Description: SANGER: Inhibition of human MKN7 cell growth in a cell viability assay.

EFO-21 = assay: cells; assay type: functional, cell-based, Homo sapiens; details: Homo sapiens, EFO-21
Description: SANGER: Inhibition of human EFO-21 cell growth in a cell viability assay.

NCI-H2405 = assay: cells; assay type: functional, cell-based, Homo sapiens; details: Homo sapiens, NCI-H2405
Description: SANGER: Inhibition of human NCI-H2405 cell growth in a cell viability assay.

ACHN = assay: cells; assay type: functional, cell-based, Homo sapiens; details: Homo sapiens, ACHN
Description: SANGER: Inhibition of human ACHN cell growth in a cell viability assay.

BHT-101 = assay: cells; assay type: functional, cell-based, Homo sapiens; details: Homo sapiens, BHT-101
Description: SANGER: Inhibition of human BHT-101 cell growth in a cell viability assay.

SAOS-2 = assay: cells; assay type: functional, cell-based, Homo sapiens; details: Homo sapiens, SAOS-2
Description: SANGER: Inhibition of human Saos-2 cell growth in a cell viability assay.

RCM-1 = assay: cells; assay type: functional, cell-based, Homo sapiens; details: Homo sapiens, RCM-1
Description: SANGER: Inhibition of human RCM-1 cell growth in a cell viability assay.

NCI-H1703 = assay: cells; assay type: functional, cell-based, Homo sapiens; details: Homo sapiens, NCI-H1703
Description: SANGER: Inhibition of human NCI-H1703 cell growth in a cell viability assay.

BPH-1 = assay: cells; assay type: functional, cell-based, Homo sapiens; details: Homo sapiens, BPH-1
Description: SANGER: Inhibition of human BPH-1 cell growth in a cell viability assay.

NY = assay: cells; assay type: functional, cell-based, Homo sapiens; details: Homo sapiens, NY
Description: SANGER: Inhibition of human NY cell growth in a cell viability assay.

KYSE-150 cell line = assay: cells; assay type: functional, cell-based, Homo sapiens; details: Homo sapiens, KYSE-150
Description: SANGER: Inhibition of human KYSE-150 cell growth in a cell viability assay.

CAKI-1 = assay: cells; assay type: functional, cell-based, Homo sapiens; details: Homo sapiens, CAKI-1
Description: SANGER: Inhibition of human CAKI-1 cell growth in a cell viability assay.

IGR-1 = assay: cells; assay type: functional, cell-based, Homo sapiens; details: Homo sapiens, IGR-1
Description: SANGER: Inhibition of human IGR-1 cell growth in a cell viability assay.

SW-620 = assay: cells; assay type: functional, cell-based, Homo sapiens; details: Homo sapiens, SW-620
Description: SANGER: Inhibition of human SW620 cell growth in a cell viability assay.

HT1197 = assay: cells; assay type: functional, cell-based, Homo sapiens, HT-1197; details: Homo sapiens, HT1197
Description: SANGER: Inhibition of human HT-1197 cell growth in a cell viability assay.

NCI-H460 = assay: cells; assay type: functional, cell-based, Homo sapiens; details: Homo sapiens, NCI-H460
Description: SANGER: Inhibition of human NCI-H460 cell growth in a cell viability assay.

SCC-9 = assay: cells; assay type: functional, cell-based, Homo sapiens; details: Homo sapiens, SCC-9
Description: SANGER: Inhibition of human SCC-9 cell growth in a cell viability assay.

NCI-H727 = assay: cells; assay type: functional, cell-based, Homo sapiens; details: Homo sapiens, NCI-H727
Description: SANGER: Inhibition of human NCI-H727 cell growth in a cell viability assay.

HMV-2 cell line = assay: cells; assay type: functional, cell-based, Homo sapiens; details: Homo sapiens, HMV-2
Description: SANGER: Inhibition of human HMV-II cell growth in a cell viability assay.

Ca-Ski = assay: cells; assay type: functional, cell-based, Homo sapiens; details: Homo sapiens, Ca-Ski
Description: SANGER: Inhibition of human Ca-Ski cell growth in a cell viability assay.

NCI-H2452 = assay: cells; assay type: functional, cell-based, Homo sapiens; details: Homo sapiens, NCI-H2452
Description: SANGER: Inhibition of human NCI-H2452 cell growth in a cell viability assay.

C3A = assay: cells; assay type: functional, cell-based, Homo sapiens; details: Homo sapiens, C3A
Description: SANGER: Inhibition of human C3A cell growth in a cell viability assay.

RD = assay: cells; assay type: functional, cell-based, Homo sapiens; details: Homo sapiens, RD
Description: SANGER: Inhibition of human RD cell growth in a cell viability assay.

Detroit 562 = assay: cells; assay type: functional, cell-based, Homo sapiens; details: Homo sapiens, Detroit 562
Description: SANGER: Inhibition of human Detroit562 cell growth in a cell viability assay.

## COc1cc2ncn(-c3cc(OCc4ccccc4C(F)(F)F)c(C(N)=O)s3)c2cc1OC [GW843682X]
REH
  IC50: > 256 nM
SU-DHL-1
  IC50: 94.3 nM
L-540
  IC50: 121 nM
EHEB
  IC50: > 256 nM
DMS-153
  IC50: > 256 nM
RPMI-6666
  IC50: 82.6 nM
EB2
  IC50: > 256 nM
NALM-6
  IC50: 24.5 nM
LC-1F
  IC50: > 256 nM
LB647-SCLC
  IC50: 18.9 nM
Daudi
  IC50: 34.7 nM

## N#Cc1c(O)c2c(-c3ccc(-c4ccccc4O)cc3)csc2[nH]c1=O
OAW-28
  IC50: > 1020 nM
SW1417
  IC50: > 1020 nM
SW13
  IC50: > 1020 nM
REH
  IC50: 104 nM
SU-DHL-1
  IC50: > 1020 nM
RERF-LC-MS
  IC50: > 1020 nM
HOP-92
  IC50: > 1020 nM
NCI-H2030
  IC50: > 1020 nM
L-540
  IC50: 848 nM
NCI-H2170
  IC50: > 1020 nM
EHEB
  IC50: 63.3 nM
DMS-153
  IC50: 373 nM
MEL-JUSO
  IC50: > 1020 nM
SCC-4
  IC50: > 1020 nM
HCC1954
  IC50: > 1020 nM
RPMI-6666
  IC50: 68 nM
MDA-MB-415
  IC50: > 1020 nM
MKN-7
  IC50: > 1020 nM
EB2
  IC50: 142 nM
EFO-21
  IC50: > 1020 nM
NCI-H2405
  IC50: > 1020 nM
ACHN
  IC50: > 1020 nM
BHT-101
  IC50: > 1020 nM
NALM-6
  IC50: 31.7 nM
SAOS-2
  IC50: > 1020 nM
RCM-1
  IC50: > 1020 nM
LC-1F
  IC50: > 1020 nM
NCI-H1703
  IC50: > 1020 nM
BPH-1
  IC50: > 1020 nM
NY
  IC50: > 1020 nM
KYSE-150 cell line
  IC50: > 1020 nM
CAKI-1
  IC50: > 1020 nM
IGR-1
  IC50: > 1020 nM
SW-620
  IC50: > 1020 nM
HT1197
  IC50: > 1020 nM
NCI-H460
  IC50: > 1020 nM
SCC-9
  IC50: > 1020 nM
NCI-H727
  IC50: > 1020 nM
LB647-SCLC
  IC50: 622 nM
HMV-2 cell line
  IC50: > 1020 nM
Ca-Ski
  IC50: > 1020 nM
NCI-H2452
  IC50: > 1020 nM
C3A
  IC50: > 1020 nM
RD
  IC50: > 1020 nM
Detroit 562
  IC50: > 1020 nM
Daudi
  IC50: 49.8 nM

## Cc1ccc(-c2c(C(=O)CCl)n(CCCO)c3ncnc(N)c23)cc1
REH
  IC50: > 4000 nM
SU-DHL-1
  IC50: > 4000 nM
L-540
  IC50: > 4000 nM
EHEB
  IC50: > 4000 nM
DMS-153
  IC50: > 4000 nM
RPMI-6666
  IC50: 2330 nM
EB2
  IC50: > 4000 nM
NALM-6
  IC50: > 4000 nM
LC-1F
  IC50: > 4000 nM
LB647-SCLC
  IC50: > 4000 nM
Daudi
  IC50: > 4000 nM
